21 molecules from PubChem BioAssay (NCI) can be followed below.

Among the test systems are HCT-116 colon; UACC-62 melanoma; SNB-19 CNS; DU-145 prostate; HOP-92 NSCLC; NCI-H23 lung; OVCAR-8 ovarian; MALME-3M melanoma; MCF7 breast; KM12 colon; A498 renal.
Assay in all cases: growth of human tumour cells (NCI), 48 h

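Protocol summary: plate cells (96-well), add compound at 5 concentrations, incubate 48 h, interpolate endpoints linearly. TGI denotes the concentration required for complete inhibition of growth.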 Some results are limits rather than exact numbers.

`CN(CCNC(=O)c1c[nH]c2c1Cc1ccccc1-2)CCNC(=O)c1c[nH]c2c1Cc1ccccc1-2`: the TGI in the assay with HCT-116 colon was more than 100 µM; in the assay with UACC-62 melanoma, 40.9 µM; in the assay with SNB-19 CNS, more than 100 µM; with DU-145 prostate, more than 100 µM; with HOP-92 NSCLC it was more than 100 µM; in the assay on NCI-H23 lung, more than 100 µM. Moreover, the TGI in the assay on OVCAR-8 ovarian is more than 100 µM; with MALME-3M melanoma, more than 100 µM; in the assay with MCF7 breast it was 86 µM; in the assay with KM12 colon, more than 100 µM.

Regarding `N/C1=C/C(=O)NC(=O)c2c(c3ccccc3oc2=O)C1`, the TGI in the assay with HCT-116 colon, in the assay with UACC-62 melanoma, in the assay on SNB-19 CNS, in the assay on DU-145 prostate, in the assay with HOP-92 NSCLC and with NCI-H23 lung was more than 100 µM in each case. Moreover, the TGI in the assay with OVCAR-8 ovarian, in the assay on A498 renal, in the assay with MALME-3M melanoma and in the assay with KM12 colon was more than 100 µM in each case.

Take `Clc1ccc(C[P+](c2ccccc2)(c2ccccc2)c2ccccc2)cc1Cl`: the TGI was determined as 10.8 µM with HCT-116 colon; 9.33 µM in the assay on UACC-62 melanoma; 10.6 µM in the assay on SNB-19 CNS; 6.02 µM with HOP-92 NSCLC; 10.4 µM in the assay with NCI-H23 lung; 12.4 µM in the assay on OVCAR-8 ovarian. The TGI with A498 renal was found to be 27 µM; in the assay on MALME-3M melanoma, 7.8 µM; in the assay with KM12 colon, 11.3 µM.

As to `C/C(N=NS(=O)(=O)c1ccc([N+](=O)[O-])cc1)=C1\C=CC=CN1O`, the TGI with HCT-116 colon, in the assay with UACC-62 melanoma, with SNB-19 CNS, with HOP-92 NSCLC, with NCI-H23 lung and in the assay with OVCAR-8 ovarian was more than 100 µM throughout. For the same molecule, the TGI in the assay with A498 renal and in the assay on KM12 colon was more than 100 µM each time.

Consider `CC1OC2OC3C(OCC(O)C3O)OC(=O)[C@]34CCC(C)(C)CC3C3=CCC5[C@@]6(C)C[C@H](O)[C@H](OC7OC(CO)C(O)C(O)C7OC7OCC(OC(=O)CC(C)(O)CC(=O)OC1C(O)C2O)C(O)C7O)[C@@](C)(CO)C6CC[C@@]5(C)[C@]3(C)CC4` (stereo not given in full), for which the TGI was 17.4 µM in the assay with HCT-116 colon; 14.4 µM in the assay with UACC-62 melanoma; 21.3 µM in the assay with SNB-19 CNS; 14.7 µM with DU-145 prostate; 6.03 µM in the assay on HOP-92 NSCLC; 10.1 µM with NCI-H23 lung. The TGI in the assay with OVCAR-8 ovarian turned out to be 15.8 µM; in the assay with MALME-3M melanoma it was 12.3 µM; in the assay with MCF7 breast, 26.4 µM; in the assay on KM12 colon, 10.5 µM.

For `CCOC(=O)C1(C#N)CC1`, the TGI with HCT-116 colon, with UACC-62 melanoma, in the assay with SNB-19 CNS, in the assay on DU-145 prostate, with NCI-H23 lung and with OVCAR-8 ovarian was more than 100 µM throughout. Moreover, the TGI in the assay on MALME-3M melanoma, in the assay with MCF7 breast and in the assay on KM12 colon was more than 100 µM throughout.

For `C[C@@H]1CC(=O)C[C@@H]2CC[C@H]3[C@@H]4CC[C@H](OC(=O)c5cccc6cc7ccccc7nc56)[C@H]4CC[C@@H]3[C@H]21`, the TGI came to 27.1 µM in the assay on HCT-116 colon; 28.4 µM with UACC-62 melanoma; 37.5 µM in the assay with SNB-19 CNS; 28.7 µM in the assay on DU-145 prostate; 48.1 µM with HOP-92 NSCLC; 30.4 µM with NCI-H23 lung. Also, the results for the TGI in the assay on OVCAR-8 ovarian, in the assay with MALME-3M melanoma and with KM12 colon were 38 µM, 22.8 µM and 31.5 µM, respectively.

In the case of `CCn1c2ccccc2c2c(-c3ccccc3)cc3c(c21)C(=O)N(c1ccccc1)C3=O`, the TGI with HCT-116 colon is more than 100 µM; in the assay with UACC-62 melanoma, more than 100 µM; in the assay with SNB-19 CNS, more than 100 µM; with HOP-92 NSCLC, 90.5 µM; in the assay with NCI-H23 lung, more than 100 µM; in the assay on OVCAR-8 ovarian it was more than 100 µM. Also, the TGI in the assay with A498 renal, with MALME-3M melanoma and in the assay on KM12 colon was more than 100 µM in each case.

On to `OC1COC2CC(Nc3ccccn3)OC12` (stereo not given), for which the TGI in the assay on HCT-116 colon, with UACC-62 melanoma, with SNB-19 CNS, in the assay with NCI-H23 lung, with OVCAR-8 ovarian and with MALME-3M melanoma was more than 100 µM throughout. The TGI with KM12 colon was more than 100 µM.

Take `COc1cc2c(cc1OC)C(=O)/C(=C/c1cc(C)cc(C)c1)C2`: the TGI in the assay with HCT-116 colon is 11.6 µM; with UACC-62 melanoma, more than 84 µM; in the assay with SNB-19 CNS it was more than 89.1 µM; with DU-145 prostate, 6.23 µM; with HOP-92 NSCLC, more than 100 µM; in the assay on NCI-H23 lung it was more than 68 µM. For the same molecule, the TGI is 48 µM in the assay on A498 renal, more than 31.9 µM in the assay with MCF7 breast and 13.5 µM with KM12 colon.

As for `COc1cc2c(/C=C3/C(=O)N(C)c4ccc(O)cc43)c(Cl)[nH]c2cc1C`, the TGI in the assay with UACC-62 melanoma came to 13.6 µM; with SNB-19 CNS it was 5.35 µM; in the assay on DU-145 prostate it was 18.4 µM; in the assay on HOP-92 NSCLC, 38.5 µM; in the assay on NCI-H23 lung, 3.28 µM; in the assay with OVCAR-8 ovarian, 15 µM. Moreover, the TGI in the assay on A498 renal is 5.39 µM; in the assay with MCF7 breast it was 33.4 µM; with KM12 colon, 6.64 µM.

On to `CC(=O)OC1[C@H](OC(C)=O)C2=C(C)[C@@H](OC(C)=O)C[C@@]2(C(C)(C)O)[C@@H](OC(C)=O)[C@H]2[C@@]1(C)[C@@H](OC(C)=O)CC(OC(C)=O)[C@]21CO1` (stereo not given in full), for which the TGI with HCT-116 colon, in the assay with UACC-62 melanoma, with SNB-19 CNS, with DU-145 prostate, with NCI-H23 lung and in the assay on OVCAR-8 ovarian was more than 100 µM each time. Also, the TGI in the assay with MALME-3M melanoma, with MCF7 breast and in the assay on KM12 colon was more than 100 µM each time.

As to `NC(Cc1ccc2nc3c4ccccc4c(=O)cc-3oc2c1)C(=O)O` (stereo not given), the TGI with HCT-116 colon is more than 100 µM; with UACC-62 melanoma it was more than 100 µM; with SNB-19 CNS, more than 100 µM; in the assay with DU-145 prostate it was more than 100 µM; in the assay with HOP-92 NSCLC it was more than 100 µM; in the assay on NCI-H23 lung, 65.1 µM. Besides, the TGI is 36.8 µM in the assay with MALME-3M melanoma, 41.4 µM in the assay on MCF7 breast and more than 100 µM in the assay on KM12 colon.

`Cc1nc2cc(Nc3ccccc3C(=O)O)ccc2s1`: the TGI in the assay on HCT-116 colon, with UACC-62 melanoma, in the assay on SNB-19 CNS, in the assay on HOP-92 NSCLC, in the assay with NCI-H23 lung and with OVCAR-8 ovarian was more than 100 µM each time. The TGI in the assay with A498 renal, in the assay on MALME-3M melanoma and in the assay with KM12 colon was more than 100 µM in each case.

Take `CCn1c(CCl)nc2c1C(=O)c1ccccc1C2=O`: the TGI in the assay on HCT-116 colon was 4.32 µM; in the assay with UACC-62 melanoma it was 3.14 µM; in the assay on SNB-19 CNS, 3.59 µM; in the assay with DU-145 prostate, 9.02 µM; with HOP-92 NSCLC, 3.75 µM; in the assay with NCI-H23 lung it was 3.12 µM. Also, the TGI in the assay on OVCAR-8 ovarian turned out to be 2.95 µM; in the assay with MALME-3M melanoma, 2.41 µM; in the assay with MCF7 breast it was 3.79 µM; in the assay with KM12 colon it was 3.23 µM.

Take `C[C@H](CCC1SC1(C)C)C1CCC2(C)C3=C(CC[C@]12C)[C@@]1(C)CC[C@H](O)C(C)(C)C1CC3` (stereo not given in full): the TGI in the assay with HCT-116 colon, with UACC-62 melanoma, in the assay on SNB-19 CNS, in the assay on HOP-92 NSCLC, in the assay on NCI-H23 lung and in the assay with OVCAR-8 ovarian was more than 100 µM throughout. For the same molecule, the TGI in the assay on A498 renal, in the assay on MALME-3M melanoma and in the assay with KM12 colon was more than 100 µM each time.

As for `C#CCN(Cc1ccc2nc(-c3ccccc3)c(N)nc2c1)c1cc(OC)c(OC)c(OC)c1`, the TGI in the assay with HCT-116 colon was 57.7 µM; in the assay on UACC-62 melanoma, 63.7 µM; in the assay with SNB-19 CNS, more than 100 µM; in the assay with NCI-H23 lung, more than 100 µM; in the assay on OVCAR-8 ovarian it was more than 100 µM; with MALME-3M melanoma it was 83.3 µM.

As to `O=C1CSC(c2ccc(Cl)cc2Cl)N1c1ccc(Oc2ccc(Cl)cc2)c(Cl)c1` (stereo not given), the TGI with HCT-116 colon is 36.2 µM; in the assay with UACC-62 melanoma, 53.5 µM; in the assay on SNB-19 CNS, more than 100 µM; with DU-145 prostate it was more than 100 µM; with HOP-92 NSCLC, 49.4 µM; with NCI-H23 lung, 69.6 µM. Also, the TGI in the assay with OVCAR-8 ovarian was more than 100 µM; in the assay with MALME-3M melanoma, 38.2 µM; in the assay with MCF7 breast, more than 100 µM; with KM12 colon, 50.1 µM.

In the case of `C(=Nc1ccc(-c2nc3ccccc3s2)cc1)c1ccc[nH]1`, the TGI with HCT-116 colon was 29.9 µM; in the assay with UACC-62 melanoma, 30.7 µM; with SNB-19 CNS it was more than 100 µM; in the assay with DU-145 prostate it was 34.5 µM; in the assay with HOP-92 NSCLC, 40.1 µM; in the assay with NCI-H23 lung, 37 µM. Further, the TGI with OVCAR-8 ovarian was more than 100 µM; with A498 renal, 36.5 µM; in the assay on MALME-3M melanoma it was 32.2 µM; in the assay on KM12 colon, 71.3 µM.

With `O=C(O)/C=C/c1ccc2c(c1)CC1(Cc3ccccc3C1)C2`, the TGI was 51.4 µM in the assay on HCT-116 colon; more than 100 µM in the assay on UACC-62 melanoma; more than 100 µM with HOP-92 NSCLC; more than 100 µM in the assay on NCI-H23 lung; more than 100 µM in the assay with OVCAR-8 ovarian; more than 100 µM in the assay with A498 renal. Also, the TGI with MALME-3M melanoma, in the assay with MCF7 breast and in the assay on KM12 colon was more than 100 µM in each case.

On to `Cn1cc(S(=O)(=O)NC(=O)Nc2ccc(Cl)cc2)c(=O)c2ccc(F)cc21`, for which the TGI was more than 100 µM with HCT-116 colon; 63.4 µM in the assay on UACC-62 melanoma; more than 100 µM in the assay with SNB-19 CNS; more than 100 µM with DU-145 prostate; more than 100 µM with HOP-92 NSCLC; more than 100 µM in the assay with NCI-H23 lung. For the same molecule, the TGI in the assay with OVCAR-8 ovarian, with A498 renal, in the assay with MALME-3M melanoma and in the assay on KM12 colon was more than 100 µM in each case.
